The values below come from patent US20260356851A1, “TRICYCLIC COMPOUNDS AND USES THEREOF” (HUTCHMED LIMITED, priority 2023, published 2026).

The structures appear in SMILES notation.

Type in all cases: cell-based
In assay [1] the target is T1, pERK1/2 (Thr202/Tyr204), NCI-1H358 (KRAS G12C) (Homo sapiens, UniProt P01116, G12C).
T1 construct: pERK1/2 HTRF read-out
In words: Assay of intracellular pERK1/2 (Thr202/Tyr204) phosphorylation in NCI-H358 cells (KRAS G12C). Conditions: pERK1/2, 2 days, read-out: NCI-H358 (KRAS G12C) IC50. The essentials:
(§1)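 HTRF detection of Thr202/Tyr204-phosphorylated ERK1/2 (665/615 nm ratio) in lysates from cells treated 2 days with serially 3-fold diluted compound.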

For assay [2], the target named is T2, pERK1/2 (Thr202/Tyr204), NCI-1H441 (KRAS G12V) (Homo sapiens, UniProt P01116, G12V).
T2 construct: pERK1/2 HTRF read-out
T2 sequence (P01116 1-188 isoform P01116-2 G12V): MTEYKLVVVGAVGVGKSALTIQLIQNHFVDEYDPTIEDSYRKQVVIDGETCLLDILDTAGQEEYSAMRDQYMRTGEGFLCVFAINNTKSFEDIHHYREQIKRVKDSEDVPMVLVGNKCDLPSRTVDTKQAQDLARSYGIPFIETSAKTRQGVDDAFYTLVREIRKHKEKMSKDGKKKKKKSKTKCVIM
In words: Assay of intracellular pERK1/2 (Thr202/Tyr204) phosphorylation in NCI-H441 cells (KRAS G12V). Conditions: pERK1/2, 2 days, read-out: NCI-H441 (KRAS G12V) IC50. The essentials: as §1

For assay [3], the target named is T3, pERK1/2 (Thr202/Tyr204), PANC-1 (KRAS G121D) (Homo sapiens, UniProt P01116, G12D).
T3 construct: pERK1/2 HTRF read-out
T3 sequence (P01116 1-188 isoform P01116-2 G12D): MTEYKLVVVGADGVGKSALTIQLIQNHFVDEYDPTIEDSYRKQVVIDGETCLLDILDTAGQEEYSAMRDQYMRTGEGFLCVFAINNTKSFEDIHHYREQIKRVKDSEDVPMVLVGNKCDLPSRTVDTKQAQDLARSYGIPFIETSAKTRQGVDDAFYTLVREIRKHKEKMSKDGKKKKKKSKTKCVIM
Description: Assay of intracellular pERK1/2 (Thr202/Tyr204) phosphorylation in PANC-1 cells (KRAS G12D). Conditions: pERK1/2, 2 days, read-out: PANC-1 (KRAS G12D) IC50. The essentials: as §1

T1 sequence (P01116 1-188 isoform P01116-2 G12C): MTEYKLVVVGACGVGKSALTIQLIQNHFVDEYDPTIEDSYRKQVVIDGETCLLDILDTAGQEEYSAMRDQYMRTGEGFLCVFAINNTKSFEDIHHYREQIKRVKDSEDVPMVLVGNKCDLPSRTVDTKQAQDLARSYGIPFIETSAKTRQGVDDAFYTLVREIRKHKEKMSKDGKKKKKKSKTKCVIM

On to `[2H]C([2H])(Oc1nc2c3c(nc(-c4cc(N)cc(C)c4C(F)(F)F)c(F)c3n1)OCCN2C(C)c1cccnc1N)[C@@H]1CCC([2H])([2H])N1C([2H])([2H])[2H]` (single isomer, unassigned) [Compound 102, 3-((R or S)-1-(5-(5-amino-3-methyl-2-(trifluoromethyl)phenyl)-4-fluoro-2-(((S)-1-(methyl-d3)pyrrolidin-2-yl-5,5-d2)methoxy-d2)-8,9-dihydro-10H-7-oxa-1,3,6,10-tetraazacyclohepta[de]naphthalen-10-yl)ethyl)pyridin-2-amine], for which the results for the IC50 in assay [1], in assay [2] and in assay [3] were 0.0008 µM, 0.002 µM and 0.038 µM, respectively.

With `[2H]C([2H])(Oc1nc2c3c(nc(-c4cc(N)cc(C)c4C(F)(F)F)c(F)c3n1)OCCN2C(C)c1cccnc1N)[C@@H]1CCC([2H])([2H])N1C([2H])([2H])[2H]` (single isomer, unassigned) [Compound 103, 3-((R or S)-1-(5-(5-amino-3-methyl-2-(trifluoromethyl)phenyl)-4-fluoro-2-(((S)-1-(methyl-d3)pyrrolidin-2-yl-5,5-d2)methoxy-d2)-8,9-dihydro-10H-7-oxa-1,3,6,10-tetraazacyclohepta[de]naphthalen-10-yl)ethyl)pyridin-2-amine], the IC50 – broadly, the concentration needed to halve the response being measured – was 0.06 µM in assay [1], > 0.1 µM in assay [2] and > 0.1 µM in assay [3].

In the case of `Cc1cc(N)cc(-c2nc3c4c(nc(OC[C@@H]5CCCN5)nc4c2F)N(C(C)c2cccnc2N)CCO3)c1C(F)(F)F` (single isomer, unassigned) [Compound 106], the IC50 in assay [1], in assay [2] and in assay [3] was > 0.1 µM each time.

For `Cc1cc(N)cc(-c2nc3c4c(nc(N5CCC[C@H]5CO)nc4c2F)N(C(C)c2cccnc2N)CCO3)c1C(F)(F)F` (single isomer, unassigned) [Compound 107], the IC50 is 0.089 µM in assay [1], > 0.1 µM in assay [2] and > 0.1 µM in assay [3].

For `Cc1cc(N)cc(-c2nc3c4c(nc(OC[C@H]5CCCN5C)nc4c2F)N(C(C)c2cccnc2N)CCO3)c1C(F)(F)F` (single isomer, unassigned) [Compound 109, 3-((R or S)-1-(5-(5-amino-3-methyl-2-(trifluoromethyl)phenyl)-4-fluoro-2-(((R)-1-methylpyrrolidin-2-yl)methoxy)-8,9-dihydro-10H-7-oxa-1,3,6,10-tetraazacyclohepta[de]naphthalen-10-yl)ethyl)pyridin-2-amine], the half-inhibitory concentration (IC50) worked out at 0.0009 µM in assay [1], 0.002 µM in assay [2] and 0.041 µM in assay [3].

As to `Cc1cc(N)cc(-c2nc3c4c(nc(OC[C@H]5CCCN5C)nc4c2F)N(C(C)c2cccnc2N)CCO3)c1C(F)(F)F` (single isomer, unassigned) [Compound 110, 3-((R or S)-1-(5-(5-amino-3-methyl-2-(trifluoromethyl)phenyl)-4-fluoro-2-(((R)-1-methylpyrrolidin-2-yl)methoxy)-8,9-dihydro-10H-7-oxa-1,3,6,10-tetraazacyclohepta[de]naphthalen-10-yl)ethyl)pyridin-2-amine], the half-inhibitory concentration (IC50) in assay [1], in assay [2] and in assay [3] was > 0.1 µM each time.

As for `[2H]C1([2H])CC[C@@]2(C([2H])([2H])Oc3nc4c5c(nc(-c6cc(N)cc(C)c6C(F)(F)F)c(F)c5n3)OCCN4C(C)c3cccnc3N)C[C@@H](F)CN12` (single isomer, unassigned) [Compound 115, 3-((R or S)-1-(5-(5-amino-3-methyl-2-(trifluoromethyl)phenyl)-4-fluoro-2-(((2R,7aS)-2-fluorotetrahydro-1H-pyrrolizin-7a(5H)-yl-5,5-d2)methoxy-d2)-8,9-dihydro-10H-7-oxa-1,3,6,10-tetraazacyclohepta[de]naphthalen-10-yl)ethyl)pyridin-2-amine], the IC50 was 0.0002 µM in assay [1], 0.0002 µM in assay [2] and 0.0009 µM in assay [3].

Turning to `[2H]C1([2H])CC[C@@]2(C([2H])([2H])Oc3nc4c5c(nc(-c6cc(N)cc(C)c6C(F)(F)F)c(F)c5n3)OCCN4C(C)c3cccnc3N)C[C@@H](F)CN12` (single isomer, unassigned) [Compound 116, 3-((R or S)-1-(5-(5-amino-3-methyl-2-(trifluoromethyl)phenyl)-4-fluoro-2-(((2R,7aS)-2-fluorotetrahydro-1H-pyrrolizin-7a(5H)-yl-5,5-d2)methoxy-d2)-8,9-dihydro-10H-7-oxa-1,3,6,10-tetraazacyclohepta[de]naphthalen-10-yl)ethyl)pyridin-2-amine], the IC50 in assay [1] came out at 0.004 µM; in assay [2], 0.009 µM; in assay [3] it was 0.023 µM.

`Cc1cc(N)cc(-c2nc3c4c(nc(OCC5CCOCC5)nc4c2F)N(C(C)c2cccnc2N)CCO3)c1C(F)(F)F` (single isomer, unassigned) [Compound 117, (R or S)-3-(1-(5-(5-amino-3-methyl-2-(trifluoromethyl)phenyl)-4-fluoro-2-((tetrahydro-2H-pyran-4-yl)methoxy)-8,9-dihydro-10H-7-oxa-1,3,6,10-tetraazacyclohepta[de]naphthalen-10-yl)ethyl)pyridin-2-amine]: the IC50 was 0.026 µM in assay [1], 0.036 µM in assay [2] and > 0.1 µM in assay [3].

Turning to `Cc1cc(N)cc(-c2nc3c4c(nc(OCC5CCOCC5)nc4c2F)N([C@@H](C)c2cccnc2N)CCO3)c1C(F)(F)F` (single isomer, unassigned) [Compound 118, (R or S)-3-(1-(5-(5-amino-3-methyl-2-(trifluoromethyl)phenyl)-4-fluoro-2-((tetrahydro-2H-pyran-4-yl)methoxy)-8,9-dihydro-10H-7-oxa-1,3,6,10-tetraazacyclohepta[de]napthalen-10-yl)ethyl)pyridin-2-amine], the IC50 in assay [1], in assay [2] and in assay [3] was > 0.1 µM in each case.

Consider `[2H]C1([2H])CC[C@@]2(C([2H])([2H])Oc3nc4c5c(nc(-c6cc(N)c(F)c(C)c6C(F)(F)F)c(F)c5n3)OCCN4C(C)c3cccnc3N)C[C@@H](F)CN12` (single isomer, unassigned) [Compound 124, 3-((R or S)-1-(5-(5-amino-4-fluoro-3-methyl-2-(trifluoromethyl)phenyl)-4-fluoro-2-(((2R,7aS)-2-fluorotetrahydro-1H-pyrrolizin-7a(5H)-yl-5,5-d2)methoxy-d2)-8,9-dihydro-10H-7-oxa-1,3,6,10-tetraazacyclohepta[de]naphthalen-10-yl)ethyl)pyridin-2-amine], for which the values for the concentration for half-maximal inhibition (IC50) in assay [1], in assay [2] and in assay [3] were 0.0001 µM, 0.0003 µM and 0.001 µM, respectively.

For `[2H]C1([2H])CC[C@@]2(C([2H])([2H])Oc3nc4c5c(nc(-c6cc(N)c(F)c(C)c6C(F)(F)F)c(F)c5n3)OCCN4[C@@H](C)c3cccnc3N)C[C@@H](F)CN12` (single isomer, unassigned) [Compound 125, 3-((R or S)-1-(5-(5-amino-4-fluoro-3-methyl-2-(trifluoromehtyl)phenyl)-4-fluoro-2-(((2R,7aS)-2-fluorotetrahydro-1H-pyrrolizin-7a(5H)-yl-5,5-d2)methoxy-d2)-8,9-dihydro-10H-7-oxa-1,3,6,10-tetraazacyclohepta[de]naphthalen-10-yl)ethyl)pyridin-2-amine], the IC50 in assay [1] came to 0.012 µM; in assay [2] it was 0.04 µM; in assay [3], 0.057 µM.

For the compound `Cc1cc(N)cc(-c2nc3c4c(nc(OC[C@@]56CCCN5C[C@H](F)C6)nc4c2F)N(C(C)c2cccnn2)CCO3)c1C(F)(F)F` (single isomer, unassigned) [Compound 127, 3-(4-fluoro-2-(((2R,7aS)-2-fluorotetrahydro-1H-pyrrolizin-7a(5H)-yl)methoxy)-10-((R or S)-1-(pyridazin-3-yl)ethyl)-9,10-dihydro-8H-7-oxa-1,3,6,10-tetraazacyclohepta[de]naphthalen-5-yl)-5-methyl-4-(trifluoromethyl)aniline], the IC50 in assay [1], in assay [2] and in assay [3] was > 0.1 µM throughout.

Consider `[2H]C1([2H])CC[C@@]2(C([2H])([2H])Oc3nc4c5c(nc(-c6cc(O)cc(Cl)c6C6CC6)c(F)c5n3)OCCN4[C@H](C)c3cccnc3N)C[C@@H](F)CN12` (single isomer, unassigned) [Compound 130, 3-(10-((R or S)-1-(2-aminopyridin-3-yl)ethyl)-4-fluoro-2-(((2R,7aS)-2-fluorotetrahydro-1H-pyrrolizin-7a(5H)-yl-5,5-d2)methoxy-d2)-9,10-dihydro-8H-7-oxa-1,3,6,10-tetraazacyclohepta[de]naphthalen-5-yl)-5-chloro-4-cyclopropylphenyl], for which the 50% inhibitory concentration (IC50) in assay [1], in assay [2] and in assay [3] was > 0.1 µM throughout.

With `[2H]C1([2H])CC[C@@]2(C([2H])([2H])Oc3nc4c5c(nc(-c6cc(O)cc(Cl)c6C6CC6)c(F)c5n3)OCCN4C(C)c3cccnc3N)C[C@@H](F)CN12` (single isomer, unassigned) [Compound 131, 3-(10-((R or S)-1-(2-aminopyridin-3-yl)ethyl)-4-fluoro-2-(((2R,7aS)-2-fluorotetrahydro-1H-pyrrolizin-7a(5H)-yl-5,5-d2)methoxy-d2)-9,10-dihydro-8H-7-oxa-1,3,6,10-tetraazacyclohepta[de]naphthalen-5-yl)-5-chloro-4-cyclopropylphenol], the IC50 in assay [1] amounted to 0.0005 µM; in assay [2] it was 0.001 µM; in assay [3], 0.007 µM.
